Experimental data as given in patent publication US11548935B2 (NeoMatrix Therapeutics Inc., priority 2016, dated 2023).
“Also recorded” adds a separate entry of the source. Peptide text beside a SMILES is read from it.

Assays:
[1] = test system: Adult human dermal fibroblasts CF31 cells; test: Fibroblast metabolism (XTT) assay with 1 nM PDGF-BB, 6 days; assay type: cell-based; details: FIG. 4, XTT
Description: Adult human dermal fibroblasts CF31 cells at 1000 cells/well were seeded in a collagen-coated 96-well plate in DMEM overnight, then 1 nM PDGF-BB with peptides at indicated doses was added and cells were incubated at 37° C. for 6 days. Then cell metabolism was measured by XTT assay by reading OD at 450 nm. Each point represents the mean of 6 replicates with a typical SD=5-10% around the mean (not shown for graft clarity).
Adult human dermal fibroblasts, CF31, at 1000 cells/well were incubated at 37° C. in a collagen-coated 96-well plate with DMEM, 1 nM PDGF-BB with peptides at indicated doses for 6 days and then cell metabolism was measured by XTT assay, reading OD at 450 nm. Data represent the mean of 6 replicates.
P12, P46, cNP7 and cNP8 were compared for their ability to promote the survival of adult human dermal fibroblasts in the presence of PDGF-BB. Adult human dermal fibroblasts at 1000 cells/well were incubated in a collagen-coated 96-well plate with DMEM, 1 nM PDGF-BB with peptides at indicated doses for 6 days and then cell metabolism was measured by XTT assay. Data represent the mean of 6 replicates (FIG. 4).

PDGF-BB = PDGF-BB (Homo sapiens, UniProt P01127); test: Surface plasmon resonance (Biacore) binding to growth factor; details: plasmon surface resonance (Biacore T200)
Description: (§1) To study the binding activities of these peptides, real time interactions of P12, P46, and cNP8 with growth factors were determined by plasmon surface resonance (Biacore T200).
In the Biacore2000 system, binding constants from kinetic data are determined by passing varying concentrations of FN peptides (analytes) over chip surfaces which are coupled with PDGF-BB (ligand), respectively. All kinetic experiments are carried out at 20° C. at a flow rate of 20 μl/min. For mass transport experiments, each analyte is injected at a fixed concentration and run at flow rates ranging from 5 to 75 μl/min. All analytes are injected over PDGF-BB ligand surfaces as well as over a control surface for 120 s, followed by 300 s of dissociation in running buffer. Regeneration of the sensor chip for subsequent injections is accomplished by pulse of 0.1% SDS. Mass transport experiments have detected little difference in response at different flow rates thus validating data from kinetic experiments. Sensorgrams are prepared and globally fitted using nonlinear least-squares analysis and numerical integration of the differential rate equations with the Biacore Bioevaluation software. […] Each data set, which consists of a series of sensorgrams from injections of different concentration of analyte over the same surface, is analyzed using kinetic models from Bioevaluation software.

[2] = molecular target: Transforming Growth Factor-Beta1 (TGF-β1) (Homo sapiens, UniProt P01137); test: as above; details: plasmon surface resonance (Biacore T200)
Description: as §1

[3] = molecular target: epidermal growth factor (EGF) (Homo sapiens, UniProt P01133); test: as above; details: plasmon surface resonance (Biacore T200)
Description: as §1

[4] = molecular target: insulin-like growth factor-1 (IGF-1) (Homo sapiens, UniProt P05019); test: as above; details: plasmon surface resonance (Biacore T200)
Description: as §1

burn wounds [5] = test: Topical treatment of porcine deep partial-thickness burns (PLO gel); assay type: in vivo, pig; details: 48-hour debrided wounds, 10 days after wounding, vs control or cP12 (FIG. 6)
Description: Four female, 20-30 kg, domestic pigs were used for cutaneous wound procedures.
Study Protocol: The animals were sedated with Talazine (Tiletamine and Zolazepam, Fort Dodge Lab, Fort Dodge, Iowa) 5 mg/kg IM. The pigs were then intubated endotracheally and maintained under a surgical plane of anesthesia with isoflurane 0.5-2.5% in room air. The flank and back hair were clipped with electric hair clippers and the skin was scrubbed with a povidone iodine solution.
Standardized deep partial-thickness burns were created on the animals' backs and flanks by applying a 2.5-cm by 2.5-cm, 150-gram aluminum bar preheated in hot water to 80° C. The burns were created on either side of the vertebral column between the forelegs and hind legs. The heated bar was wiped dry just prior to application to prevent water droplets from creating a steam burn on the skin. The bar was then placed at a vertical position perpendicular to the skin's surface and applied for a period of 20 seconds with all pressure supplied by gravity. […] 24 burns were evenly distributed on both sides of the back of four pigs. […] Debridement was performed by gently rubbing dry gauze against the surface of the burn until the necrotic epidermis was peeled away from the entire burn surface. Interventions: On the back skin of each pig, equal sets of 4 burns were randomly treated with one of the 6 study treatments. […]

burn wounds [6] = test: Intravenous treatment in porcine vertical progression burn model; assay type: in vivo, pig; details: intravenous infusion 0.001, 0.01 or 0.1 mg/kg
Description: The vertical progression burn model (as shown in above topical experiment) was used to create burns on the backs of each of 4 pigs. Twenty burns (80° C./20 seconds) were made on the backs of each pig—one set of burns was made 8 hours prior to infusion, the second set was made 4 hours prior to infusion. Three pigs were treated with infusions of 0.001, 0.01 or 0.1 mg/kg of cNP8 and one pig was treated with an infusion of buffer, as control. Lyophilized cNP8 was reconstituted in PBS (11.6 mg/ml corrected-based on 75% pure) to get a 5 mM stock solution in the laboratory and filtered with a syringe filter with 0.22 um membrane. The concentration of filtered cNP8 solution was determined by reading OD280 and the concentration was calculated based on OD280=6.76 per mM cNP8. The cNP8 was diluted to 5 mM with PBS as necessary. The filtered cNP8 solution was aliquoted and stored at −80° C. Just before infusion, cNP8 was further diluted: a) 1:270 with PBS to get a 0.019 mM cNP8 solution. The injection amount was 3 ml/kg body weight of 0.019 mM cNP8 which is equal to 0.1 mg/kg body weight. b) 1:2700 with PBS to get a 0.0019 mM cNP8 solution. The injection was 3 ml/kg body weight of 0.0019 mM cNP8 which is equal to 0.01 mg/kg body weight. c) 1:27000 with PBS to get a 0.00019 mM cNP8 solution. The injection amount was 3 ml/kg body weight of 0.00019 mM cNP8 which is equal to 0.001 mg/kg body weight. […]

Sequence of PDGF-BB (P01127 82-190 limits assumed): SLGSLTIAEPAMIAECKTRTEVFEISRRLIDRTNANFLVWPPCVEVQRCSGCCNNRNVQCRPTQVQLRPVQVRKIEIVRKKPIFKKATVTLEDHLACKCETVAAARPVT
Sequence of Transforming Growth Factor-Beta1 (TGF-β1) (P01137 279-390 limits assumed, species assumed): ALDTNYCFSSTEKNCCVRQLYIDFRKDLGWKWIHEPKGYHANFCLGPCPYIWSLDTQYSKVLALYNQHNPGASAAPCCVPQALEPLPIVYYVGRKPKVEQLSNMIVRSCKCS
Sequence of insulin-like growth factor-1 (IGF-1) (P05019 49-118, species assumed): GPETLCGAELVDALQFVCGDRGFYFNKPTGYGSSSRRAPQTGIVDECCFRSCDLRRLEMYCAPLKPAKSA
Sequence of epidermal growth factor (EGF) (P01133 971-1023 limits assumed, species assumed): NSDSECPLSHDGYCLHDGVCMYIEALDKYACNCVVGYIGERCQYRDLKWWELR

SMILES: CC[C@H](C)[C@@H]1NC(=O)[C@H](Cc2c[nH]cn2)NC(=O)[C@H](C(C)C)NC(=O)[C@H](CO)NC(=O)CNC(=O)[C@H](CCCCN)NC(=O)[C@@H]2CCCN2C(=O)[C@H](CCCNC(=N)N)NC(=O)[C@H](Cc2c[nH]c3ccccc23)NC(=O)[C@H](CCCNC(=N)N)NC(=O)[C@H](CC(C)C)NC(=O)CNC(=O)[C@H](Cc2ccc(O)cc2)NC(=O)[C@H](CCCCN)NC(=O)CNC1=O [cNP8, HIGKYGLRWRPKGSV] (cyclo(HIGKYGLRWRPKGSV))
- bioactivity compared with other peptides [1]: equivalent or better bioactivity; also recorded: much higher bioactivity than that of P12
- promotion of survival of adult human dermal fibroblasts in the presence of PDGF-BB [1]: promoted the survival of adult human dermal fibroblasts
- binding to PDGF-BB (PDGF-BB): bind
- binding to TGF-β1 [2]: bind
- binding to EGF [3]: did not bind
- binding to IGF-1 [4]: did not bind
- re-epithelialization (burn wounds [5]): markedly increased
- re-epithelialization (burn wounds [6]; day 10 post-injury (FIG. 7)): markedly increased; also recorded: increase of re-epithelialization
- re-epithelialization (burn wounds [6]; day 14 post-injury (FIG. 8)): markedly increased; also recorded: increase of re-epithelialization
